Laboratory results as given in US20110230430A1, “SAPONIN EXTRACT FROM SAPONARIA SPP. AND USES THEREOF” (NATIONAL RESEARCH COUNCIL OF CANADA, priority 2008, published 2011).

What was measured:
[1] = test system: PC-3, MDA-MB-231, WiDr, and HT-29 Cells; experiment: Order of apoptosis potency across cancer cell lines; parameters: species or system human; details: rank based on responses observed in PC-3, MDA-MB-231, WiDr, and HT-29 Cells; 1 = most active
[2] = Haemolytic properties of selected saponins; details: saponins purified to more than 75%
Description: The haemolytic properties of the various saponins that have been purified to more than 75% have been examined and are provided in Table 39. Haemolytic properties are not directly related to anti-cancer or apoptosis inducing properties of saponins but may be related to toxicity and utility of the saponins for preparation of injectable formulations. Saponins most suitable for injectable formulation will be less haemolytic. QS21, a purified Quillaja saponaria saponin with known haemolytic activity is used as reference.

HT-29 cancer cells = experiment: Dual Sensor: MitoCasp Assay in HT-29 colon cancer cells; format: cell-based, human; details: HT-29 cells, 2.5 μM, 5.0 μM and 10 μM, 24 hours
Description: Techniques to assay enzymatic and signaling processes involved in apoptosis have been developed as standard protocols. One example of an early step in apoptosis, is the release of cytochrome C from mitochondria and the activation of caspase-3. Induction of the caspases (a series of cytosolic proteases) is one of the most consistently observed features of apoptosis. Caspases are a family of proteolytic enzymes that transmit the apoptotic signal using a proteolytic cascade. […] Caspases 3 and 7 are effector caspases, central to the caspase cascade pathways. In particular, caspase-3 plays a central role in the process. When caspases are activated, they cleave target proteins; one of the most important of these is poly-(ADP-ribose) polymerase (PARP), which is a protein located in the nucleus. Therefore, assays detecting release of cytochrome C, detecting caspase-3 activity and detecting PARP degradation are effective determinants of apoptosis. The loss of mitochondrial membrane potential is known to occur during apoptosis. […] Collapse of the mitochondrial membrane potential during apoptosis prevents the dye from accumulating in the mitochondria resulting in a decrease in fluorescent intensity that can be detected with flow cytometry. […] In this assay, caspase 3/7 activity is detected using a cell permeable carboxyfluorescein labeled caspase inhibitor, which binds covalently to active caspases 3 and 7. Cells that contain bound inhibitor are detected by an increase in fluorescence when samples are analyzed by flow cytometry.
Following PC1448 treatment, adherent and non-adherent cells were harvested and washed with cold PBS. […] Samples were analyzed by flow cytometry measuring the fluorescence emissions from 515 nm to 530 nm for caspase detection, and 574 nm to 600 nm for mitochondrial membrane potential detection. […]
HT-29 cancer cells were treated with 2.5 μM, 5.0 μM and 10 μM of PC1526 or PC1448 for 23 hours, or with 2.5 μM, 5.0 μM and 10 μM PC1422 for 24 hours and assessed using the Dual Sensor: MitoCasp™ Assay. […]

CRL-2522 cells = experiment: Dual Sensor: MitoCasp Assay in CRL-2522 normal fibroblast cells; format: cell-based, human
Description: (§1) Techniques to assay enzymatic and signaling processes involved in apoptosis have been developed as standard protocols. One example of an early step in apoptosis, is the release of cytochrome C from mitochondria and the activation of caspase-3. Induction of the caspases (a series of cytosolic proteases) is one of the most consistently observed features of apoptosis. Caspases are a family of proteolytic enzymes that transmit the apoptotic signal using a proteolytic cascade. […] Caspases 3 and 7 are effector caspases, central to the caspase cascade pathways. In particular, caspase-3 plays a central role in the process. When caspases are activated, they cleave target proteins; one of the most important of these is poly-(ADP-ribose) polymerase (PARP), which is a protein located in the nucleus. Therefore, assays detecting release of cytochrome C, detecting caspase-3 activity and detecting PARP degradation are effective determinants of apoptosis. The loss of mitochondrial membrane potential is known to occur during apoptosis. To analyze mitochondrial membrane potential, a cationic dye may be used which accumulates in the mitochondria of healthy cells. Collapse of the mitochondrial membrane potential during apoptosis prevents the dye from accumulating in the mitochondria resulting in a decrease in fluorescent intensity that can be detected with flow cytometry. Dual Sensor: MitoCasp™ (Cell Technology) used herein in the Examples is an assay that measures caspase 3/7 activity and cells with decreased mitochondrial membrane potential. In this assay, caspase 3/7 activity is detected using a cell permeable carboxyfluorescein labeled caspase inhibitor, which binds covalently to active caspases 3 and 7. Cells that contain bound inhibitor are detected by an increase in fluorescence when samples are analyzed by flow cytometry.
(§2) Following centrifugation at 500×g for 5 min, cell pellets were resuspended in PBS at 3.3×10^6 cells/mL. 300 μL cell suspension was mixed with 10 μL each of 30X Mitochondria Membrane Potential Dye and 30X Caspase 3/7 detection reagent. Following incubation for 60 min under normal growth conditions, cells were washed twice with 1× wash buffer and resuspended in 0.5 mL 1× wash buffer. Samples were analyzed by flow cytometry measuring the fluorescence emissions from 515 nm to 530 nm for caspase detection, and 574 nm to 600 nm for mitochondrial membrane potential detection.
CRL-2522 cells, acquired from ATCC, (American Type Culture Collection) are normal fibroblast cells that originated from human foreskin. CRL-2522 cells were maintained in RPMI 1640 medium (Gibco) supplemented with 10% fetal bovine serum (Cansera), 100 U/mL penicillin, 100 μg/mL streptomycin and 0.25 μg/mL amphotericin B. Cultures were maintained in medium at 37° C. with 5% CO2 and 100% relative humidity. […]

MDA-MB-231 cells = experiment: Dual Sensor: MitoCasp Assay in MDA-MB-231 breast cancer cells; format: cell-based, human
Description: as §1, §2
The MDA-MB-231 cell line (ATCC #HTB-26) was derived from the pleural effusion of a patient with a breast adenocarcinoma (Cailleau et al., 1974). The cells were maintained in RPMI 1640 (Gibco) supplemented with 10% fetal bovine serum (Camera), 100 U/mL penicillin, 100 μg/mL streptomycin and 0.25 μg/mL amphotericin B. Cultures were maintained in medium at 37° C. with 5% CO2 and 100% relative humidity. […]

MCF-7 cells = experiment: Dual Sensor: MitoCasp Assay in MCF-7 breast cancer cells; format: cell-based, human; details: 5 and 10 μM, 24 hours
Description: Techniques to assay enzymatic and signaling processes involved in apoptosis have been developed as standard protocols. One example of an early step in apoptosis, is the release of cytochrome C from mitochondria and the activation of caspase-3. Induction of the caspases (a series of cytosolic proteases) is one of the most consistently observed features of apoptosis. Caspases are a family of proteolytic enzymes that transmit the apoptotic signal using a proteolytic cascade. […] Caspases 3 and 7 are effector caspases, central to the caspase cascade pathways. In particular, caspase-3 plays a central role in the process. […] Collapse of the mitochondrial membrane potential during apoptosis prevents the dye from accumulating in the mitochondria resulting in a decrease in fluorescent intensity that can be detected with flow cytometry. […] In this assay, caspase 3/7 activity is detected using a cell permeable carboxyfluorescein labeled caspase inhibitor, which binds covalently to active caspases 3 and 7. Cells that contain bound inhibitor are detected by an increase in fluorescence when samples are analyzed by flow cytometry. […]
MCF-7 cells were treated with 5.0 μM and 10 μM of saponins PC1526, PC1464 and PC1422 for 24 hours and assessed using Dual Sensor: MitoCasp™ Assay.

PC-3 cells = experiment: Dual Sensor: MitoCasp Assay in PC-3 prostate cancer cells; format: cell-based, human
Description: as §1
PC-3 cells (ATCC #CRL-1435) were derived from a prostate adenocarcinoma (Kaighn et al., 1979). They were maintained in RPMI 1640 medium (Gibco) supplemented with 10% fetal bovine serum (Cansera), 100 U/mL penicillin, and 100 μg/mL streptomycin and 0.25 μg/mL amphotericin B. Cultures were maintained in medium at 37° C. with 5% CO2 and 100% relative humidity.
To harvest adherent cells, the existing medium was removed and cells were dissociated with 0.25% (w/v) trypsin-EDTA·4Na in Hank's Balanced Salt Solution (Gibco). To block the proteolytic action of the trypsin, the cells were resuspended in an excess of media containing fetal bovine serum. Cells were transferred to a 15 mL conical centrifuge tube and pelleted by centrifugation at 500×g for 5 min. Cell pellets were resuspended in media, and an aliquot of the cells were seeded into a new flask.
PC-3 cells were seeded in tissue culture flasks with regular growth medium and maintained under normal conditions. […] Following incubation under normal growth conditions for the specified time, cells were washed once with cold phosphate-buffered saline (PBS) (137 mM NaCl, 2.7 mM KCl, 4.3 mM Na2HPO4.7H2O, 1.4 mM KH2PO4) and harvested as previously described. Assays were carried out according to instructions given in kits. All Flow Cytometry was performed using a Coulter Epics XL (Beckman).
as §2

[3] = CRL-2522 cells, 2.5 μM PC1422, 36 hr
[4] = CRL-2522 cells, 5.0 μM PC1422, 36 hr
[5] = CRL-2522 cells, 10.0 μM PC1422, 36 hr
[6] = CRL-2522 cells, 15.0 μM PC1422, 36 hr
[7] = 5.0 μM saponin, 36 hours (comparison of saponins)

Substance: Vaccaroside E [PC1422]
- Order of Apoptosis Potency [1]: 4
- HD50 [2]: 43.8 µM
- Caspase 3/7 activity compared to untreated cells / induction of apoptosis (in words, FIG. 5) (HT-29 cancer cells): increase in caspase 3/7 activity
- Cells with caspase 3/7 activity (CRL-2522 cells; [3]): 3.1%
- Cells with decreased mitochondrial membrane potential (CRL-2522 cells; [3]): 3.4%
- Cells with caspase 3/7 activity (CRL-2522 cells; [4]): 15.3%
- Cells with decreased mitochondrial membrane potential (CRL-2522 cells; [4]): 5.1%
- Cells with caspase 3/7 activity (CRL-2522 cells; [5]): 12.8%
- Cells with decreased mitochondrial membrane potential (CRL-2522 cells; [5]): 19.2%
- Cells with caspase 3/7 activity (CRL-2522 cells; [6]): 7.3%
- Cells with decreased mitochondrial membrane potential (CRL-2522 cells; [6]): 26.2%
- Cells with Caspase 3/7 activity and decreased mitochondrial membrane potential vs untreated (in words) (CRL-2522 cells; CRL-2522 cells, PC1422 15.0-2.5 μM, 36 hours): modest increase
- Apoptosis in non-cancerous cell line (summary in words) (CRL-2522 cells; fibroblast cell line CRL-2522, summary of the Examples): no or little apoptosis
- Cells with caspase 3/7 activity (MDA-MB-231 cells; 2.5 μM PC1422, 36 hr): 21.1%
- Cells with decreased mitochondrial membrane potential (MDA-MB-231 cells; 2.5 μM PC1422, 36 hr): 13.7%
- Cells with caspase 3/7 activity (MDA-MB-231 cells; 5.0 μM PC1422, 36 hr): 32.2%
- Cells with decreased mitochondrial membrane potential (MDA-MB-231 cells; 5.0 μM PC1422, 36 hr): 32.9%
- Cells with caspase 3/7 activity (MDA-MB-231 cells; [7]): 41.2%
- Cells with decreased mitochondrial membrane potential (MDA-MB-231 cells; [7]): 21.7%
- Cells with caspase 3/7 activity (MDA-MB-231 cells; 10.0 μM PC1422, 36 hr): 41.6%
- Cells with decreased mitochondrial membrane potential (MDA-MB-231 cells; 10.0 μM PC1422, 36 hr): 46.0%
- Cells with caspase 3/7 activity (MDA-MB-231 cells; 15.0 μM PC1422, 36 hr): 26.7%
- Cells with decreased mitochondrial membrane potential (MDA-MB-231 cells; 15.0 μM PC1422, 36 hr): 65.2%
- Concentration of greatest effect on apoptosis (MDA-MB-231 cells; 36 hours): 15 µM
- Induction of apoptosis at concentrations as low as (MDA-MB-231 cells; 36 hours): 2.5 µM
- Induction of apoptosis (in words, FIG. 16) (MCF-7 cells): do not induce apoptosis
- Cells with caspase 3/7 activity (PC-3 cells; 2.5 μM PC1422, 36 hr): 42.2%
- Cells with decreased mitochondrial membrane potential (PC-3 cells; 2.5 μM PC1422, 36 hr): 23.6%
- Cells with caspase 3/7 activity (PC-3 cells; 5.0 μM PC1422, 36 hr): 49.1%
- Cells with decreased mitochondrial membrane potential (PC-3 cells; 5.0 μM PC1422, 36 hr): 30.0%
- Cells with caspase 3/7 activity (PC-3 cells; 10.0 μM PC1422, 36 hr): 55.7%
- Cells with decreased mitochondrial membrane potential (PC-3 cells; 10.0 μM PC1422, 36 hr): 53.7%
- Cells with caspase 3/7 activity (PC-3 cells; 15.0 μM PC1422, 36 hr): 57.1%
- Cells with decreased mitochondrial membrane potential (PC-3 cells; 15.0 μM PC1422, 36 hr): 53.3%
- Concentration of greatest effect on apoptosis (PC-3 cells; 36 hours): above 10 μM
- Induction of apoptosis at concentrations as low as (PC-3 cells; 36 hours): 2.5 µM
